Measurements reported in PubChem BioAssay AID651964 (The Scripps Research Institute Molecular Screening Center, 2012).

How the values were obtained:
Assay in all cases: PubChem AID 651964; call rule not given here
[1] = tested on: BiP; conditions: mouse embryonic fibroblasts, qRT-PCR mRNA fold induction, at 10 µM (top of the series)
[2] = biological target: DNA damage-inducible transcript 3 protein (Mus musculus) (UniProt P35639); conditions: mouse embryonic fibroblasts, qRT-PCR mRNA fold induction; CHOP; at 10 µM (top of the series)
[3] = tested on: GCLM; conditions: mouse embryonic fibroblasts, qRT-PCR mRNA fold induction, at 10 µM (top of the series)
[4] = tested on: HO-1; conditions: mouse embryonic fibroblasts, qRT-PCR mRNA fold induction, at 10 µM (top of the series)
[5] = tested on: Hsp70; conditions: mouse embryonic fibroblasts, qRT-PCR mRNA fold induction, at 10 µM (top of the series)

Measured: fold induction of mRNA

Sequence of DNA damage-inducible transcript 3 protein (Mus musculus) (P35639 whole entry, looked up): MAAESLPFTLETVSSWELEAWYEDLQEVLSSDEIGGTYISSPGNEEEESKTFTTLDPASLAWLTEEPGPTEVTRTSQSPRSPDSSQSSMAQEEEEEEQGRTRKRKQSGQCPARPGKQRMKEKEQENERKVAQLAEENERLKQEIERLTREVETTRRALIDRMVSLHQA

COc1ccc(/C=C/C=C2C(=O)NC(=O)NC2=O)cc1
active: [1] 2.18 | [2] 2.08 | [3] 1.6 | [4] 5.54 | [5] 18.9
